From patent US11046710B2, “Sulfonamide compounds” (DAIICHI SANKYO COMPANY, LIMITED, priority 2016, dated 2021) come the findings set out here.

human TNAP, sequence (P05186 18-524): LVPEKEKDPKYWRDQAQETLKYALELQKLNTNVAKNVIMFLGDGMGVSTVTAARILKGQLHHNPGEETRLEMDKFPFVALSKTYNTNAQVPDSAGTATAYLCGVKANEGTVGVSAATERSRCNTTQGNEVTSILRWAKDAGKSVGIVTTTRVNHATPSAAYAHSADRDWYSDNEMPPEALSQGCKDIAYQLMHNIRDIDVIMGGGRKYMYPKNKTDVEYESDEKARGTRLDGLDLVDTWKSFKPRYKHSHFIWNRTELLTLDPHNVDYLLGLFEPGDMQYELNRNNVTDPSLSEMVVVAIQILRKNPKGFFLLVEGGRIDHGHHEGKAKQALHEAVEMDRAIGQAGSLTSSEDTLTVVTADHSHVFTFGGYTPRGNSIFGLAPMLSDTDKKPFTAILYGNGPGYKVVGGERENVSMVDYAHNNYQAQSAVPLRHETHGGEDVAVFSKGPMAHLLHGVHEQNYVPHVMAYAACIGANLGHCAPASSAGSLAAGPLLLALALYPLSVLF

This assay has as its target human TNAP (Homo sapiens (Human), UniProt P05186). In words: Inhibitory test of TNAP activity (pNPP substrate, p-nitrophenol production). The settings on record: human TNAP from transfected COS1 culture supernatant, 60 minutes at room temperature. Format: biochemical. On the procedure:
COS1 cells (DS Pharma Biomedical Co., Ltd.) were transfected with human TNAP (OriGene Technologies, Inc.) using Lipofectamine LTX & Plus reagent (Invitrogen Corp.). On the next day, the medium was replaced with a fresh medium, and the cells were cultured in an incubator for 3 days. After 3 days, the culture supernatant was collected and concentrated by centrifugation at 5000 G for 30 minutes using Amicon 14, 10^4 cut (Merck Millipore). The concentrated culture supernatant was dialyzed against 5 L of 50 mM Tris/200 mM NaCl/1 mM MgCl2/20 μM ZnCl2 twice and used as an enzyme source (enzyme solution). The substrate pNPP (ProteoChem Inc.) was adjusted to 3.1 mM with Milli-Q water, and a solution of each test compound dissolved in dimethyl sulfoxide (DMSO; Wako Pure Chemical Industries, Ltd.) by 6 serial dilutions at a 5-fold common ratio from 100 μM, or DMSO was added thereto at a final concentration of 1% by volume. The enzyme solution adjusted to 2 μg/mL with an assay buffer (200 mM Tris/2 mM MgCl2/0.04 mM ZnCl2/0.01% Tween 20) was added in the same amount of the substrate solution and incubated at room temperature for 60 minutes. Then, the absorbance (ABS: 405 nm) was measured using a microplate reader (model plus 384, Molecular Devices, LLC), and the concentration of produced p-nitrophenol was calculated.
For `COCCOc1ccc(F)cc1S(=O)(=O)Nc1cnc2c(c1)-c1ccnn1CCO2` [Example 11, N-(5,6-dihydropyrazolo[1,5-d]pyrido[3,2-f][1,4]oxazepin-10-yl)-5-fluoro-2-(2-methoxyethoxy)benzenesulfonamide], half-maximal inhibition (IC50) was put at 12.6 nM. That is a double-digit nanomolar value.
For `COc1ccc(Cl)cc1S(=O)(=O)Nc1cnc2c(c1)CN1C(=O)[C@@H](O)C[C@H]1CO2` [Example 54, 5-chloro-N-[(8S,9aS)-8-hydroxy-7-oxo-8,9,9a,10-tetrahydro-5H,7H-pyrido[3,2-f]pyrrolo[2,1-c][1,4]oxazepin-3-yl]-2-methoxybenzenesulfonamide], the half-maximal inhibitory concentration (IC50) is 1.1 nM.
Turning to `CCOc1ccc(F)cc1S(=O)(=O)Nc1cnc2c(c1)-c1ccnn1[C@H](C)CO2` [Example 20, 2-ethoxy-5-fluoro-N-[(5R)-5-methyl-5,6-dihydropyrazolo[1,5-d]pyrido[3,2-f][1,4]oxazepin-10-yl]benzenesulfonamide], the IC50 worked out at 4.2 nM. Against the preceding molecule, the IC50 is about 3.8-fold higher.
For the molecule `COc1ccc(Cl)cc1S(=O)(=O)Nc1cnc2c(c1)C(=O)N1CCC[C@@H]1CO2` [Example 28, 5-chloro-2-methoxy-N-[(9aR)-5-oxo-8,9,9a,10-tetrahydro-5H,7H-pyrido[3,2-f]pyrrolo[2,1-c][1,4]oxazepin-3-yl]benzenesulfonamide], the IC50 turned out to be 1.2 nM. This IC50 is about 3.5-fold lower than that of the molecule before.
With `COc1ccc(Cl)cc1S(=O)(=O)Nc1cnc2c(c1)C(=O)N1C[C@@H](OC)C[C@@H]1CO2` [Example 46, 5-chloro-2-methoxy-N-[(8S,9aR)-8-methoxy-5-oxo-8,9,9a,10-tetrahydro-5H,7H-pyrido[3,2-f]pyrrolo[2,1-c][1,4]oxazepin-3-yl]benzenesulfonamide], the midpoint of inhibition, the IC50, lay at 0.5 nM. Against the preceding molecule, the IC50 is about 2.4-fold lower.
`O=C1c2cc(NS(=O)(=O)c3cc(Cl)ccc3OC(F)(F)F)cnc2OC[C@H]2[C@@H](O)CCN12` [Example 42, 5-chloro-N-[(9S,9aS)-9-hydroxy-5-oxo-8,9,9a,10-tetrahydro-5H,7H-pyrido[3,2-f]pyrrolo[2,1-c][1,4]oxazepin-3-yl]-2-(trifluoromethoxy)benzenesulfonamide] returned a concentration for half-maximal inhibition (IC50) of 0.4 nM. This IC50 and that of the molecule before are within 1.5-fold of each other.
As for `COc1ccc(Cl)cc1S(=O)(=O)Nc1cnc2c(c1)C(=O)N1C[C@H](O)C[C@@H]1CO2` [Example 35, 5-chloro-N-[(8R,9aR)-8-hydroxy-5-oxo-8,9,9a,10-tetrahydro-5H,7H-pyrido[3,2-f]pyrrolo[2,1-c][1,4]oxazepin-3-yl]-2-methoxybenzenesulfonamide], the figure is 0.9 nM.
As for `O=C1c2cc(NS(=O)(=O)c3cc(F)ccc3OC(F)(F)F)cnc2OC[C@H]2C[C@@H](O)CN12` [Example 39, 5-fluoro-N-[(8R,9aR)-8-hydroxy-5-oxo-8,9,9a,10-tetrahydro-5H,7H-pyrido[3,2-f]pyrrolo[2,1-c][1,4]oxazepin-3-yl]-2-(trifluoromethoxy)benzenesulfonamide], the figure is 2.4 nM; as for `COc1ccc(F)cc1S(=O)(=O)Nc1cnc2c(c1)C(=O)N1C[C@@H](O)C[C@@H]1CO2` [Example 31, 5-fluoro-N-[(8S,9aR)-8-hydroxy-5-oxo-8,9,9a,10-tetrahydro-5H,7H-pyrido[3,2-f]pyrrolo[2,1-c][1,4]oxazepin-3-yl]-2-methoxybenzenesulfonamide], 1.2 nM; as for `COc1ccc(Cl)cc1S(=O)(=O)Nc1cnc2c(c1)C(=O)N1CC(F)(F)C[C@@H]1CO2` [Example 45, 5-chloro-N-[(9aR)-8,8-difluoro-5-oxo-8,9,9a,10-tetrahydro-5H,7H-pyrido[3,2-f]pyrrolo[2,1-c][1,4]oxazepin-3-yl]-2-methoxybenzenesulfonamide], 2 nM.
`CCOc1ncc(F)cc1S(=O)(=O)Nc1cnc2c(c1)-c1ccnn1[C@@H](C)CO2` [Example 24, 2-ethoxy-5-fluoro-N-[(5S)-5-methyl-5,6-dihydropyrazolo[1,5-d]pyrido[3,2-f][1,4]oxazepin-10-yl]pyridine-3-sulfonamide]: half-maximal inhibition (IC50) required 2.3 nM. This IC50 and that of the molecule before are within 1.5-fold of each other.
For `COc1ccc(Cl)cc1S(=O)(=O)Nc1cnc2c(c1)-c1nnc(C(C)C)n1CCO2` [Example 5, 5-chloro-2-methoxy-N-[3-(propan-2-yl)-5,6-dihydropyrido[3,2-f][1,2,4]triazolo[4,3-d][1,4]oxazepin-10-yl]benzenesulfonamide], inhibition was half-maximal at 2.8 nM (IC50).
The molecule `COc1ccc(Cl)cc1S(=O)(=O)Nc1cnc2c(c1)C(=O)N1C[C@H](O)C[C@H]1CO2` [Example 29, 5-chloro-N-[(8R,9aS)-8-hydroxy-5-oxo-8,9,9a,10-tetrahydro-5H,7H-pyrido[3,2-f]pyrrolo[2,1-c][1,4]oxazepin-3-yl]-2-methoxybenzenesulfonamide] yielded a half-inhibitory concentration (IC50) of 7.1 nM.
For `COc1ccc(Cl)cc1S(=O)(=O)Nc1cnc2c(c1)CN1C(=O)[C@H](O)C[C@H]1CO2` [Example 53, 5-chloro-N-[(8R,9aS)-8-hydroxy-7-oxo-8,9,9a,10-tetrahydro-5H,7H-pyrido[3,2-f]pyrrolo[2,1-c][1,4]oxazepin-3-yl]-2-methoxybenzenesulfonamide], the IC50 was 4.3 nM. Compared with the last molecule, the IC50 is about 1.7-fold lower.
In turn, `CCOc1ncc(F)cc1S(=O)(=O)Nc1cnc2c(c1)-c1ccnn1CCO2` [Example 14, N-(5,6-dihydropyrazolo[1,5-d]pyrido[3,2-f][1,4]oxazepin-10-yl)-2-ethoxy-5-fluoropyridine-3-sulfonamide] came in with an IC50 of 3.6 nM.
The molecule `COc1ncc(Cl)cc1S(=O)(=O)Nc1cnc2c(c1)-c1ccnn1CCO2` [Example 12, 5-chloro-N-(5,6-dihydropyrazolo[1,5-d]pyrido[3,2-f][1,4]oxazepin-10-yl)-2-methoxypyridine-3-sulfonamide] displayed a 50% inhibitory concentration (IC50) of 8.5 nM.
On to `CCc1nnc2n1CCOc1ncc(NS(=O)(=O)c3cc(Cl)ccc3OC)cc1-2` [Example 3, 5-chloro-N-(3-ethyl-5,6-dihydropyrido[3,2-f][1,2,4]triazolo[4,3-d][1,4]oxazepin-10-yl)-2-methoxybenzenesulfonamide], for which the IC50 was determined as 2.4 nM. This IC50 is about 3.5-fold lower than that of the molecule before.
Take `COc1ccc(Cl)cc1S(=O)(=O)Nc1cnc2c(c1)CN1C(=O)CCC[C@H]1CO2` [Example 59, 5-chloro-2-methoxy-N-[(10aS)-7-oxo-7,8,9,10,10a, 11-hexahydro-5H-dipyrido[2,1-c:3′,2′-f][1,4]oxazepin-3-yl]benzenesulfonamide]: the 50% inhibitory concentration (IC50) amounted to 1.4 nM.
As for `CCOc1ccc(F)cc1S(=O)(=O)Nc1cnc2c(c1)-c1ccnn1[C@@H](C)CO2` [Example 18, 2-ethoxy-5-fluoro-N-[(5S)-5-methyl-5,6-dihydropyrazolo[1,5-d]pyrido[3,2-f][1,4]oxazepin-10-yl]benzenesulfonamide], the figure is 2.8 nM; as for `O=C1COCC2COc3ncc(NS(=O)(=O)c4cc(Cl)ccc4OC(F)(F)F)cc3CN12` (stereo not shown) [Example 63], 1.4 nM; as for `COc1ccc(Cl)cc1S(=O)(=O)Nc1cnc2c(c1)-c1nnc(C)n1CCO2` [Example 1, 5-chloro-2-methoxy-N-(3-methyl-5,6-dihydropyrido[3,2-f][1,2,4]triazolo[4,3-d][1,4]oxazepin-10-yl)benzenesulfonamide], 2.6 nM.
For `COc1ccc(Cl)cc1S(=O)(=O)Nc1cnc2c(c1)-c1nccn1CCO2` [Example 6, 5-chloro-N-(5,6-dihydroimidazo[1,2-d]pyrido[3,2-f][1,4]oxazepin-10-yl)-2-methoxybenzenesulfonamide], the IC50 came to 5.9 nM.
In the case of `COc1ccc(Cl)cc1S(=O)(=O)Nc1cnc2c(c1)CN1C(=O)OC[C@H]1CO2` [Example 58, 5-chloro-2-methoxy-N-[(9aR)-7-oxo-9a,10-dihydro-5H, 9H-[1,3]oxazolo[4,3-c]pyrido[3,2-f][1,4]oxazepin-3-yl]benzenesulfonamide], 3.8 nM corresponded to half-maximal inhibition (IC50).
Regarding `CCOc1ccc(F)cc1S(=O)(=O)Nc1cnc2c(c1)CN1C(=O)COC[C@H]1CO2` [Example 61, 2-ethoxy-5-fluoro-N-[(10aS)-7-oxo-7,8,10a,11-tetrahydro-5H,10H-[1,4]oxazino[3,4-c]pyrido[3,2-f][1,4]oxazepin-3-yl]benzenesulfonamide], the midpoint of inhibition, the IC50, lay at 0.6 nM.
Molecule `O=C1[C@@H](O)C[C@H]2COc3ncc(NS(=O)(=O)c4cc(Cl)ccc4OC(F)(F)F)cc3CN12` [Example 56, 5-chloro-N-[(8S,9aS)-8-hydroxy-7-oxo-8,9,9a,10-tetrahydro-5H,7H-pyrido[3,2-f]pyrrolo[2,1-c][1,4]oxazepin-3-yl]-2-(trifluoromethoxy)benzenesulfonamide] came in with an IC50 of 1.4 nM.
As for `COc1ccc(Cl)cc1S(=O)(=O)Nc1cnc2c(c1)-n1nccc1CCO2` [Example 26, 5-chloro-N-(4,5-dihydropyrazolo[1,5-d]pyrido[2,3-b][1,4]oxazepin-9-yl)-2-methoxybenzenesulfonamide], inhibition was half-maximal at 29.4 nM (IC50).
On to `CNC(=O)O[C@H]1C[C@@H]2COc3ncc(NS(=O)(=O)c4cc(Cl)ccc4OC)cc3C(=O)N2C1` [Example 48, (8S,9aR)-3-{[(5-chloro-2-methoxyphenyl)sulfonyl]amino}-5-oxo-8,9,9a,10-tetrahydro-5H, 7H-pyrido[3,2-f]pyrrolo[2,1-c][1,4]oxazepin-8-yl methylcarbamate], for which the midpoint of inhibition, the IC50, lay at 0.6 nM.
Molecule `COc1ncc(Cl)cc1S(=O)(=O)Nc1cnc2c(c1)-c1ccnn1[C@@H](C)CO2` [Example 21, 5-chloro-2-methoxy-N-[(5S)-5-methyl-5,6-dihydropyrazolo[1,5-d]pyrido[3,2-f][1,4]oxazepin-10-yl]pyridine-3-sulfonamide] returned an IC50 of 3 nM. Against the preceding molecule, the IC50 is about 5-fold higher.

By IC50 is commonly meant the concentration at which inhibition is half-maximal. A lower IC50 goes with greater potency in that assay.
